# System: breast cancer cell lines
# Assay: Antiproliferative activity, cell line not given
# Type: cell-based, human
# Conditions: text on structure-activity relationship, Tables 1 and 2
row,Substance,"Antiproliferative activity in words, compared with compound 5 or the parent"
1,H-Arg-Pro-[3-amino-3(1-napthyl)-propionic acid]-Tyr-OH [Compound 13],activity was lost
2,H-Arg-[3-amino-3(biphenyl)-propionic acid]-Phe-OH [Compound 10],retained the activity and specificity
3,H-Lys-[3-amino-3(biphenyl)-propionic acid]-Phe-OH [Compound 11],loss of activity
4,H-Arg-[3-amino-3(1-napthyl)-propionic acid]-Tyr-OH [Compound 6],loss of activity
5,H-Arg-[3-amino-3(1-napthyl)-propionic acid]-Asp-OH [Compound 7],loss of activity

# Reference: paper PMC3163471 (MedChemComm, 2011)
